Results published in PubChem BioAssay AID588648 (The Scripps Research Institute Molecular Screening Center, 2011).
The source made the active and inactive calls.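 How the source made its calls: active means Change of at least 30% in epidermal growth factor receptor protein level versus solvent-only controls, drop or rise; inactive means receptor level change under 30% either way.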

System: HCT116 EGFR protein level, western blot, 24 h
Test: EGFR protein lowering in cells – cell-based, HCT116 colorectal carcinoma, chemiluminescent western blot, counter-screen for KLF5 inhibitor project, late-stage follow-up (AID 588648)
Details: at 10 µM; for inhibition: stronger effect = higher value; for fold change: measured here: EGFR band fold change vs DMSO

| SMILES | inhibition | fold change |
| --- | --- | --- |
| CN(C(=O)COC(=O)/C=C/c1cccc([N+](=O)[O-])c1)C1CCS(=O)(=O)C1 (stereo unspecified) | 1.68% (inactive) | -1.02 |
| CN(C(=O)CNC(=O)/C=C/c1cccc(Cl)c1)C1CCS(=O)(=O)C1 (stereo unspecified) | 10.3% (inactive) | -1.11 |
| CN(C(=O)CNC(=O)/C=C/c1cccc(Cl)c1)C1CCS(=O)(=O)CC1 | 12.7% (inactive) | -1.15 |
